What was measured:
Type in all cases: cell-based
[1] = test system: B16-F1 mouse melanoma cells; experiment: Pigmentation assay (melanin in media)
Procedure: B16-F1 mouse melanoma cells (American Type Culture Collection, Maryland, USA) were maintained in 75 cm^2 culture flasks in RPMI 1640 medium (ICN-Flow, cat. no. 12-60-54) supplemented with L-glutamine (4 mM) and 10% foetal bovine serum (FBS) at 37° C. in a water saturated, 5% CO2 in air atmosphere. Cells were passaged twice weekly.
Subconfluent B16 cells were seeded in 96 well microtiter plates at a density of 5000 cells/well and cultured overnight in DMEM (Life Technologies, NY) containing 10% foetal bovine serum and 1% penicillin/streptomycin without phenol red at 37° C. under 5% CO2. After 24 hours, the media was replaced with fresh media containing the test materials or vehicle controls. Cells were incubated for 72 hours at which time melanin was visible in the control wells. Next, the melanin containing media from each well was transferred to a clean 96 well plate and quantified by reading the absorbance at 530 nm using a microplate spectrophotometer (Dynatech MR5000) and correcting for the baseline absorption of fresh medium. As the corrected absorption is proportional to the melanin concentration the percentage pigmentation for a skin lightening test substance can be calculated as: […]
where OD530 test and OD530 ref indicate the average corrected absorption of the medium from the wells with the test substance and that of the medium from the wells without the test substance. The percentage inhibition caused by the test substance is then 100 - % pigmentation.

[2] = test system: keratinocytes; experiment: Keratinocyte viability by neutral red up-take in PGE2 assay; conditions: at the concentrations tested
Procedure: After incubating for 24 hours the medium was removed and the viability determined by the Neutral Red method.
The cells were then tested for viability by the neutral red up-take method described in example 2 above.

[3] = test system: ICAM; experiment: ICAM-1 assay, PMA-induced ICAM production in human skin fibroblasts; conditions: for ICAM: N 4, p < 0.001 vs PMA-treated
Procedure: (§1) Intracellular adhesion molecules (ICAM) and PEG2 production by human skin fibroblasts can be induced by the inflammatory stimulus PMA (phorbal myristate acetate). PMA represents an external stressor which induces oxidative stress and inflammatory responses in cells. This model is used to model inflammation in vivo.
(§2) Primary human foreskin fibroblasts at passage 2 (P2) were seeded into 96-well plates at 10000 cells/well and maintained for 24 hours in an atmosphere of 5% carbon dioxide in Dulbeccos Modified Eagles Medium (DMEM) supplemented with 10% foetal calf serum. […] Phorbal myristate acetate (PMA) (Sigma) was added to the media and the cells incubated for a further 24 hours. […] The fibroblasts/media were then analysed as described below immediately or snap frozen in liquid nitrogen and stored at -70° C. for future analysis. The cells were then counted and data from the dot-blot analysis subsequently standardised to cell number.
ICAM-1 assay: Media were discarded and cells washed with Dulbecco PBS. To the washed cells, 150 μl 0.1% Triton X-100 (Sigma) was added for 3 minutes to extract ICAM from cell membrane. The extracts were transferred to Eppendoff centrifuge tubes and centrifuged at 1000 g for 2 min to remove cell debris. A volume of 100 μl supernatant was used for ICAM assay. The soluble ICAM-1 was assessed with commercially available immunoenzymometric assay kit (R&D Systems). Concentrations of ICAM-1 in the samples were determined based on parallelly running standard curve.

[4] = test system: PGE2; experiment: Prostaglandin E2 assay, PMA-induced PGE2 production in human skin fibroblasts; conditions: for PGE2: N 4, p < 0.001 vs PMA-treated
Procedure: as §1, §2
Prostaglandin E2 (PGE2) assay: Volumes of 50 μl culture medium were taken for PGE2 assay after gently shaking the culture plate. PGE2 levels in the medium were determined with a Biotrak PGE2 immunoassay kit (Amersham, UK). The assay is based on the competition between unlabelled PGE2 in the sample and a fixed quantity of horseradish peroxidase labelled PGE2 for a limited amount of fixed PGE2 specific antibody. Concentrations of unlabelled sample PGE2 are determined according to a standard curve which was obtained at the same time.

## CCCCCCCCCCC/C=C\CCCCC(=O)O [Petroselinic Acid, petroselinic acid]
[1]
  melanin production (in words): inhibits melanin production
[1]; Mus musculus, B16-F1, 0.01%, 72 hours, n = 4, ** (0.000)
  activity at 0.01 %: 79.5%
[1]; Mus musculus, B16-F1, 0.013%, 72 hours, n = 4, ** (0.000)
  activity at 0.013 %: 40.4%
[1]; Mus musculus, B16-F1, 0.02%, 72 hours, n = 4, ** (0.000)
  activity at 0.02 %: 55.3%
[1]; Mus musculus, B16-F1, 0.04%, 72 hours, n = 4, ** (0.000)
  activity at 0.04 %: 3.9%
[1]; Mus musculus, B16-F1, 0.1%, 72 hours, n = 4, ** (0.000)
  activity at 0.1 %: 19.3%
[2]
  Cell viability of keratinocytes (in words): not found to be adversely effected
[3]; PMA + PA (0.1 uM)
  ICAM: 8.64 ± 0.89 ng/mL
[3]; PMA + PA (1 uM)
  ICAM: 7.71 ± 0.66 ng/mL
[3]; PMA + PA (10 uM)
  ICAM: 7.39 ± 0.14 ng/mL
[3]; PMA + PA (100 uM)
  ICAM: 6.68 ± 1.35 ng/mL
[3]; PMA-challenged
  production of ICAM (in words): decreases the production
[4]; PMA + PA (0.1 uM)
  PGE2: 500 ± 127 pg/mL
[4]; PMA + PA (1 uM)
  PGE2: 486 ± 93 pg/mL
[4]; PMA + PA (10 uM)
  PGE2: 233 ± 139 pg/mL
[4]; PMA + PA (100 uM)
  PGE2: 117 ± 39 pg/mL
[4]; PMA-challenged, even at 0.1 μm (so in the source)
  inflammatory response as measured by PGE2 production (in words): dramatically reduces the inflammatory response

Reference: patent publication US6042841A, “Cosmetic method of treating skin” (Unilever Home & Personal Care USA Division of Conopco, Inc., priority 1998, dated 2000)
